Data: patent US20250084056A1, “SUBSTITUTED OXOISOINDOLINYL PIPERIDINE-2,6-DIONE COMPOUNDS” (BRISTOL-MYERS SQUIBB COMPANY, priority 2023, published 2025)
pIC50: −log10 of the molar value.

Experiments:
Assay type in all cases: cell-based
GSPT1 = GSPT1 (Homo sapiens, UniProt P15170+Q96SW2); assay: GSPT1 Cellular Degradation Assay (DF15-GSPT1-ePL); set-up: expressed in transfected cells; conditions: DF15-GSPT1-ePL cells, 20 hours
Summary of the method: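 Human DF15 cells co-expressing a GSPT1–ePL fusion were treated with compound in RPMI 1640/10% FBS for 20 h at 37 °C. GSPT1 level was read by enzyme-fragment-complementation luminescence after 60 min with detection reagent. The reference degrader at […] defined 75% response; DC50 and Dmax were reported.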

Cyclin E1 = Cyclin E1 (Homo sapiens, UniProt P24864+Q96SW2); assay: Cyclin E1 Cellular Degradation Assay (MSD); set-up: endogenous in cells; host or cells: OVCAR3; conditions: for DC50 / Dmax: Cyclin E1 cellular degradation; for Dmax: maximum degradation; for Ratio of GSPT1 DC50/Cyclin E1 DC50: selectivity for degradation of Cyclin E1 over GSPT1
Summary of the method: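 OVCAR3 cells treated with compound for 24 h at 37 °C, lysed, and cyclin E1 measured by MSD sandwich immunoassay (rabbit capture, mouse detection anti-CCNE1). Reference degrader at […] defined 110% response; DC50 and Dmax derived from response.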

Phospho-Rb (Ser807/811) = assay: Phospho-Retinoblastoma (pRB) Cellular Assay; conditions: Homo sapiens, OVCAR-3, NIH OVCAR3 cells, 24 hours; for pIC50: concentration giving 50% response; for Emax: maximum response, reference compound at 10 μM = 100%, read-out: pRB Ymax
Summary of the method: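 OVCAR3 cells seeded overnight, then dosed with serial dilutions for 24 h at 37° C. Lysed with kit mix plus phosphatase inhibitor, ≥4 h at room temperature, read on EnVision; 100% response set by reference compound at 10 μM, giving IC50 and Ymax.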

Sequence of GSPT1 (P15170 whole entry, the tested form may be a part): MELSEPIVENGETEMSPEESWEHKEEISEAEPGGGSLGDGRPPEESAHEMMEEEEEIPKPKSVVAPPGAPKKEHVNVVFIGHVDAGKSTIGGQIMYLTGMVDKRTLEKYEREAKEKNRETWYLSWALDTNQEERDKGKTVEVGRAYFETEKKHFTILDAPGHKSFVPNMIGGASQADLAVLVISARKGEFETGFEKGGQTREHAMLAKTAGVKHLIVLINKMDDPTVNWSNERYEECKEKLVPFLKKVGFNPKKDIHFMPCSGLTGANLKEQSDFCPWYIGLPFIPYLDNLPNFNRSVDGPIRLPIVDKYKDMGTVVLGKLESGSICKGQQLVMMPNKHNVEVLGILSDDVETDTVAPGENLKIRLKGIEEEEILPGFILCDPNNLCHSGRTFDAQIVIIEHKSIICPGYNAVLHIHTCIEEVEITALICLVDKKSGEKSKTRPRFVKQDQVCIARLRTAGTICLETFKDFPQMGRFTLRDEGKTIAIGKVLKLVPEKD
Sequence of GSPT1 (Q96SW2 whole entry, the tested form may be a part): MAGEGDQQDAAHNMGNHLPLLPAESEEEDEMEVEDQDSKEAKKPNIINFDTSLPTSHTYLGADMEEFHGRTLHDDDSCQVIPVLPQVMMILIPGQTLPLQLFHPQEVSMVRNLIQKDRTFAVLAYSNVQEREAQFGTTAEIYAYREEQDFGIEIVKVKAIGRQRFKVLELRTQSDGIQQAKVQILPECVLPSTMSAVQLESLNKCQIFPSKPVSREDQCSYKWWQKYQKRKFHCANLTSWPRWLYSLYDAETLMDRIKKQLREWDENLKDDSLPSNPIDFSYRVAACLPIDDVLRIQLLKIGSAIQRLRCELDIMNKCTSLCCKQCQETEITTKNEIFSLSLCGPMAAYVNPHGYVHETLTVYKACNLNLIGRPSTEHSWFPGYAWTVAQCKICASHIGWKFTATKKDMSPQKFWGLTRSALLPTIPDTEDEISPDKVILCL
Sequence of GSPT1 (Q16531 whole entry partner, the tested form may be a part): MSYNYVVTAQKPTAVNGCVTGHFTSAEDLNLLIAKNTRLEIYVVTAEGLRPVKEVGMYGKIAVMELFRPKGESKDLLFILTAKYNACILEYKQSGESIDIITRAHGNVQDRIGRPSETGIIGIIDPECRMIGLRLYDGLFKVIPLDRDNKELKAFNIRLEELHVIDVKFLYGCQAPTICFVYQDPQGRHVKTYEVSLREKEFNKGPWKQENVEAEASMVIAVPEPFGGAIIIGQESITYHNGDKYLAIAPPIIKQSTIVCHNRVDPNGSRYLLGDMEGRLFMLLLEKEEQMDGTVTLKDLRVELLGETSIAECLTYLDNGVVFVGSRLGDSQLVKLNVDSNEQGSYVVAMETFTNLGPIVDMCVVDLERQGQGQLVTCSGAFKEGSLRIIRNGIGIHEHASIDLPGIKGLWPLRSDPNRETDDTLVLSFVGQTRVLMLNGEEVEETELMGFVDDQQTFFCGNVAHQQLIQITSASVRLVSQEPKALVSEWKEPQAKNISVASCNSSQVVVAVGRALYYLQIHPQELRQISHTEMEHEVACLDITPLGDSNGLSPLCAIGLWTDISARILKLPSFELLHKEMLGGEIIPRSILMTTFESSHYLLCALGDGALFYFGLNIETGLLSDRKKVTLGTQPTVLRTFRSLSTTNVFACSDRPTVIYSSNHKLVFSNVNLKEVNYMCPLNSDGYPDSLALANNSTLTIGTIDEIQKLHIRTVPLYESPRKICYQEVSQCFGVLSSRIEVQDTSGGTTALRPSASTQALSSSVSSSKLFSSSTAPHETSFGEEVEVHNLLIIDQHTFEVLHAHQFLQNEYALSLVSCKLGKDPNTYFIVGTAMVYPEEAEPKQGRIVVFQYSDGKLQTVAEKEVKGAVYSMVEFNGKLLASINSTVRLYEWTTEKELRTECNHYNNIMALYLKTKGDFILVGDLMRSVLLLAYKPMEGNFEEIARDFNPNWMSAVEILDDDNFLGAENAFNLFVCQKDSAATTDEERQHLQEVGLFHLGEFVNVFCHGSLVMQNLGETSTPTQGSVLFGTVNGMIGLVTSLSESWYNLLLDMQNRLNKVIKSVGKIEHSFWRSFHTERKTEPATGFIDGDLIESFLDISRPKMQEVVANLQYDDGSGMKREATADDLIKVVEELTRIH
Sequence of Cyclin E1 (P24864 whole entry): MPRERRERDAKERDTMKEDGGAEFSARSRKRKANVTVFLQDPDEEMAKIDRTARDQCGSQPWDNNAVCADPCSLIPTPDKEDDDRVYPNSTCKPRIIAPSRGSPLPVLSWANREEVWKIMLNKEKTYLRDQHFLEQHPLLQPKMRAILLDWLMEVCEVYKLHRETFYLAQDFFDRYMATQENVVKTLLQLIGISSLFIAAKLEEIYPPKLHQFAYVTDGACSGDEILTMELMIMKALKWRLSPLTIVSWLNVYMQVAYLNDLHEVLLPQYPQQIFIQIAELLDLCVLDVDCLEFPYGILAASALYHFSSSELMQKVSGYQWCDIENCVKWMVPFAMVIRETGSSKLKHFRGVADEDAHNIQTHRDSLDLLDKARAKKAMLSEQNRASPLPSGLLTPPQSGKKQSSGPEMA
Sequence of Cyclin E1 (Q96SW2 whole entry): as the sequence (Q96SW2 whole entry, the tested form may be a part) above
Sequence of Cyclin E1 (Q16531 whole entry partner): as the sequence (Q16531 whole entry partner, the tested form may be a part) above

| Compound | DC50 (GSPT1) [nM] | Dmax (GSPT1) [%] | DC50 (Cyclin E1) [nM] | Dmax (Cyclin E1) [%] | Ratio of GSPT1 DC50/Cyclin E1 DC50 (Cyclin E1) | pIC50 (Phospho-Rb (Ser807/811)) | Emax (Phospho-Rb (Ser807/811)) [%] |
| --- | --- | --- | --- | --- | --- | --- | --- |
| COc1c(COC(=O)Nc2ccc(Oc3cc(F)c(F)cc3C)cc2F)ccc2c1C(=O)N(C1CCC(=O)NC1=O)C2 (centres unmarked) [Example 94, [2-(2,6-dioxopiperidin-3-yl)-4-methoxy-3-oxo-2,3-dihydro-1H-isoindol-5-yl]methyl N-[4-(4,5-difluoro-2-methylphenoxy)-2-fluorophenyl]carbamate] | > 14000 | 25 | 198 | 106 | >71 | 6.54 | 107 |
| COc1c(COC(=O)Nc2ccc(Oc3ccc(F)c(C)c3)cc2)ccc2c1C(=O)N(C1CCC(=O)NC1=O)C2 (centres unmarked) [Example 96, [2-(2,6-dioxopiperidin-3-yl)-4-methoxy-3-oxo-2,3-dihydro-1H-isoindol-5-yl]methyl N-[4-(4-fluoro-3-methylphenoxy)phenyl]carbamate] | > 14000 | 27 | 129 | 106 | >109 | 7.00 | 117 |
| CC(C)Oc1c(COC(=O)Nc2ccc(Oc3ccc(F)c(F)c3)cc2)ccc2c1C(=O)N([C@H]1CCC(=O)NC1=O)C2 (single isomer, unassigned) [Example 125] | > 14000 | 7 | 263 | 107 | >53 | 7.01 | 138 |
| O=C1CCC(N2Cc3ccc(COC(=O)Nc4ccc(Oc5ccc(F)c(F)c5)cc4F)c(O[C@@H]4CCOC4)c3C2=O)C(=O)N1 (stereo partly drawn) [Example 154, [2-(2,6-dioxopiperidin-3-yl)-3-oxo-4-[(3R)-oxolan-3-yloxy]-2,3-dihydro-1H-isoindol-5-yl]methyl N-[4-(3,4-difluorophenoxy)-2-fluorophenyl]carbamate] | > 14000 | 26 | 147 | 100 | >95 | 6.65 | 123 |
| COc1c(COC(=O)Nc2ccc(Oc3ccccc3C(F)(F)F)cc2Cl)ccc2c1C(=O)N(C1CCC(=O)NC1=O)C2 (centres unmarked) [Example 90, [2-(2,6-dioxopiperidin-3-yl)-4-methoxy-3-oxo-2,3-dihydro-1H-isoindol-5-yl]methyl N-{2-chloro-4-[2-(trifluoromethyl)phenoxy]phenyl}carbamate] | > 14000 | 10 | 200 | 100 | >70 | 6.32 | 103 |
| COc1c(COC(=O)Nc2ccc(Oc3cc(F)cc(F)c3)cc2)ccc2c1C(=O)N(C1CCC(=O)NC1=O)C2 (centres unmarked) [Example 13, [2-(2,6-dioxopiperidin-3-yl)-4-methoxy-3-oxo-2,3-dihydro-1H-isoindol-5-yl]methyl N-[4-(3,5-difluorophenoxy)phenyl]carbamate] | > 14000 | 7 | 55 | 113 | >254 | 6.56 | 97 |
| COc1c(COC(=O)Nc2ccc(Oc3ccc(F)c(F)c3)cc2F)ccc2c1C(=O)N(C1CCC(=O)NC1=O)C2 (centres unmarked) [Example 23, [2-(2,6-dioxopiperidin-3-yl)-4-methoxy-3-oxo-2,3-dihydro-1H-isoindol-5-yl]methyl N-[4-(3,4-difluorophenoxy)-2-fluorophenyl]carbamate] | > 14000 | 27 | 71 | 105 | >196 | 6.80 | 97 |
| COc1c(COC(=O)Nc2ccc(Nc3cccc(F)c3)cc2)ccc2c1C(=O)N(C1CCC(=O)NC1=O)C2 (centres unmarked) [Example 9, [2-(2,6-dioxopiperidin-3-yl)-4-methoxy-3-oxo-2,3-dihydro-1H-isoindol-5-yl]methyl N-{4-[(3-fluorophenyl)amino]phenyl}carbamate] | > 14000 | 38 | 648 | 86 | >22 | 5.52 | 85 |
| CC(C)Oc1c(COC(=O)Nc2ccc(Oc3cccc(F)c3)cc2)ccc2c1C(=O)N(C1CCC(=O)NC1=O)C2 (centres unmarked) [Example 123, [2-(2,6-dioxopiperidin-3-yl)-3-oxo-4-(propan-2-yloxy)-2,3-dihydro-1H-isoindol-5-yl]methyl N-[4-(3-fluorophenoxy)phenyl]carbamate] | > 14000 | 4 | 131 | 107 | >107 | 6.96 | 121 |
| O=C1CCC(N2Cc3ccc(COC(=O)Nc4ccc(Oc5ccc(F)c(F)c5)cc4)c(OC(F)F)c3C2=O)C(=O)N1 (centres unmarked) [Example 61, [4-(difluoromethoxy)-2-(2,6-dioxopiperidin-3-yl)-3-oxo-2,3-dihydro-1H-isoindol-5-yl]methyl N-[4-(3,4-difluorophenoxy)phenyl]carbamate] | > 14000 | 22 | 157 | 104 | >89 | 6.39 | 107 |
| O=C1CCC(N2Cc3ccc(COC(=O)Nc4ccc(Oc5cc(F)cc(F)c5)cc4F)c(O[C@@H]4CCCOC4)c3C2=O)C(=O)N1 (stereo partly drawn) [Example 149, [2-(2,6-dioxopiperidin-3-yl)-4-[(3R)-oxan-3-yloxy]-3-oxo-2,3-dihydro-1H-isoindol-5-yl]methyl N-[4-(3,5-difluorophenoxy)-2-fluorophenyl]carbamate] | > 14000 | 15 | 67 | 109 | >209 | 7.15 | 144 |
| COc1c(COC(=O)Nc2ccc(Oc3ccc(F)cc3C)cc2C)ccc2c1C(=O)N(C1CCC(=O)NC1=O)C2 (centres unmarked) [Example 76, [2-(2,6-dioxopiperidin-3-yl)-4-methoxy-3-oxo-2,3-dihydro-1H-isoindol-5-yl]methyl N-[4-(4-fluoro-2-methylphenoxy)-2-methylphenyl]carbamate] | > 14000 | 33 | 267 | 111 | >52 | 6.98 | 122 |
| O=C1CCC(N2Cc3ccc(COC(=O)Nc4ccc(Oc5ccccc5)cc4)c(O[C@@H]4CCCOC4)c3C2=O)C(=O)N1 (stereo partly drawn) [Example 142, [2-(2,6-dioxopiperidin-3-yl)-4-[(3R)-oxan-3-yloxy]-3-oxo-2,3-dihydro-1H-isoindol-5-yl]methyl N-(4-phenoxyphenyl)carbamate] | > 14000 | 4 | 22 | 108 | >635 | 6.84 | 139 |
| [2H]C1([2H])C(=O)NC(=O)[C@@]([2H])(N2Cc3ccc(COC(=O)Nc4ccc(Oc5ccc(F)c(F)c5)cc4)c(OC)c3C2=O)C1([2H])[2H] [Example 180, {2-[(3S)-2,6-dioxo(3,4,4,5,5-^2H5s)piperidin-3-yl]-4-methoxy-3-oxo-2,3-dihydro-1H-isoindol-5-yl}methyl N-[4-(3,4-difluorophenoxy)phenyl]carbamate] | > 14000 | 48 | 60 | 111 | >233 | 7.27 | 108 |
| COc1c(COC(=O)Nc2ccc(Cc3cccc(F)c3)cc2)ccc2c1C(=O)N(C1CCC(=O)NC1=O)C2 (centres unmarked) [Example 6, [2-(2,6-dioxopiperidin-3-yl)-4-methoxy-3-oxo-2,3-dihydro-1H-isoindol-5-yl]methyl N-{4-[(3-fluorophenyl)methyl]phenyl}carbamate] | > 14000 | 6 | 62 | 94 | >226 | 6.83 | 117 |
| O=C1CCC(N2Cc3ccc(COC(=O)Nc4ccc(Oc5ccc(F)cc5F)cc4)c(OC4CCOCC4)c3C2=O)C(=O)N1 (centres unmarked) [Example 139, [2-(2,6-dioxopiperidin-3-yl)-4-(oxan-4-yloxy)-3-oxo-2,3-dihydro-1H-isoindol-5-yl]methyl N-[4-(2,4-difluorophenoxy)phenyl]carbamate] | > 14000 | 8 | 67 | 105 | >210 | 7.57 | 170 |
| O=C1CCC(N2Cc3ccc(COC(=O)Nc4ccc(Oc5cc(F)cc(F)c5)cc4F)c(OC4CCOCC4)c3C2=O)C(=O)N1 (centres unmarked) [Example 140, [2-(2,6-dioxopiperidin-3-yl)-4-(oxan-4-yloxy)-3-oxo-2,3-dihydro-1H-isoindol-5-yl]methyl N-[4-(3,5-difluorophenoxy)-2-fluorophenyl]carbamate] | > 14000 | 0 | 30 | 105 | >474 | 7.80 | 132 |
